Experiment [1] concerns HCVPV1b subgenomic replicon (wild type 1b). Briefly: HCV replicon RNA replication assay, wild type 1b. Format: cell-based, HCV genotype 1b (Con-1), Huh-7 cells. Particulars: Hepatitis C virus, read-out: WT 1b Ec50. A general note: Replicon systems follow genome replication, usually without infectious particles.
Experiment [2] deals with HCV genotype 1a subgenomic replicon with NS3 resistance mutation D168V. Briefly: HCV replicon RNA replication assay, D168V 1a. Format: cell-based, HCV genotype 1a (strain H77), Huh-7 cells. Particulars: Hepatitis C virus, read-out: D168V 1a Ec50 (nM).
The test system of experiment [3] is HCVPV1a subgenomic replicon (wild type 1a). Briefly: HCV replicon RNA replication assay, wild type 1a. Format: cell-based, HCV genotype 1a (strain H77), Huh-7 cells. Particulars: Hepatitis C virus, read-out: WT 1a Ec50.
Experiment [4] relates to HCV genotype 1b subgenomic replicon with NS3 resistance mutation D168V. Briefly: HCV replicon RNA replication assay, D168V 1b. Format: cell-based, HCV genotype 1b (Con-1), Huh-7 cells. Particulars: Hepatitis C virus, read-out: D168V 1b Ec50 (nM).
Experiment [5] relates to HCV genotype 1a subgenomic replicon with NS3 resistance mutation R155K. Briefly: HCV replicon RNA replication assay, R155K 1a. Format: cell-based, HCV genotype 1a (strain H77), Huh-7 cells. Particulars: Hepatitis C virus, read-out: R155K 1a Ec50 (nM).
Setting [6] is: Table 1, luciferase replicon, Huh-7, 72 h.
[7] abbreviates: Table 2, clinical comparators, wildtype genotype 1b.
The mark [8] stands for this setting: Table 2, clinical comparators, wildtype genotype 1a.

Like-named read-outs stand apart in the source and are kept apart here.

Regarding `COc1c(F)ccc2c(O[C@@H]3C[C@H]4C(=O)N[C@]5(C(=O)NS(=O)(=O)C6(C)CC6)C[C@H]5/C=C\CCCCC[C@H](NC(=O)c5ccn(CC(F)F)n5)C(=O)N4C3)cc(OC(C)C)nc12` [Compound 1022, (2R,6S,12Z,13aS,14aR,16aS)-6-({[1-(2,2-difluoroethyl)-1H-pyrazol-3-yl]carbonyl}amino)-2-{[7-fluoro-8-methoxy-2-(propan-2-yloxy)quinolin-4-yl]oxy}-N-[(1-methylcyclopropyl)sulfonyl]-5,16-dioxo-1,2,3,6,7,8,9,10,11,13a,14,15,16,16a-tetradecahydrocyclopropa[e]pyrrolo[1,2-a][1,4]diazacyclopentadecine-14a(5H)-carboxamide], the EC50 in experiment [1] (setting [6]) came to 0.41 nM; in experiment [2] (Huh-7, 72 h) it was 0.97 nM; in experiment [3] (setting [6]) it was 0.42 nM; in experiment [4] (Huh-7, 72 h), 0.62 nM; in experiment [5] (Huh-7, 72 h) it was 1.3 nM.
The corresponding values for `COc1c(F)ccc2c(O[C@@H]3C[C@H]4C(=O)N[C@]5(C(=O)NS(=O)(=O)C6(C)CC6)C[C@H]5/C=C\CCCCC[C@H](NC(=O)c5ccn(C(C)C)n5)C(=O)N4C3)cc(OC(C)C)nc12` [Compound 1023, (2R,6S,12Z,13aS,14aR,16aS)-2-{[7-fluoro-8-methoxy-2-(propan-2-yloxy)quinolin-4-yl]oxy}-N-[(1-methylcyclopropyl)sulfonyl]-5,16-dioxo-6-({[1-(propan-2-yl)-1H-pyrazol-3-yl]carbonyl}amino)-1,2,3,6,7,8,9,10,11,13a,14,15,16,16a-tetradecahydrocyclopropa[e]pyrrolo[1,2-a][1,4]diazacyclopentadecine-14a(5H)-carboxamide] are 0.4 nM, 0.83 nM, 0.37 nM, 0.52 nM and 3.1 nM.
Take `Cc1ccc2c(O[C@@H]3C[C@H]4C(=O)N[C@]5(C(=O)NS(=O)(=O)C6(C)CC6)C[C@H]5/C=C\CCCCC[C@H](NC(=O)c5ccn(C)n5)C(=O)N4C3)cc(OC(C)C)nc2c1Br` [Compound 1024, (2R,6S,12Z,13aS,14aR,16aS)-2-{[8-bromo-7-methyl-2-(propan-2-yloxy)quinolin-4-yl]oxy}-N-[(1-methylcyclopropyl)sulfonyl]-6-{[(1-methyl-1H-pyrazol-3-yl)carbonyl]amino}-5,16-dioxo-1,2,3,6,7,8,9,10,11,13a,14,15,16,16a-tetradecahydrocyclopropa[e]pyrrolo[1,2-a][1,4]diazacyclopentadecine-14a(5H)-carboxamide]: the EC50 is 0.13 nM in experiment [1] (setting [6]); 1.9 nM in experiment [2] (Huh-7, 72 h); 0.1 nM in experiment [3] (setting [6]); 0.09 nM in experiment [4] (Huh-7, 72 h); 9.3 nM in experiment [5] (Huh-7, 72 h).
The corresponding values for `CC(C)Oc1cc(O[C@@H]2C[C@H]3C(=O)N[C@]4(C(=O)NS(=O)(=O)C5(C)CC5)C[C@H]4/C=C\CCCCC[C@H](NC(=O)c4ccn(C)n4)C(=O)N3C2)c2ccc(Cl)c(Cl)c2n1` [Compound 1025, (2R,6S,12Z,13aS,14aR,16aS)-2-{[7,8-dichloro-2-(propan-2-yloxy)quinolin-4-yl]oxy}-N-[(1-methylcyclopropyl)sulfonyl]-6-{[(1-methyl-1H-pyrazol-3-yl)carbonyl]amino}-5,16-dioxo-1,2,3,6,7,8,9,10,11,13a,14,15,16,16a-tetradecahydrocyclopropa[e]pyrrolo[1,2-a][1,4]diazacyclopentadecine-14a(5H)-carboxamide] are 0.17 nM, 3.8 nM, 0.22 nM, 0.11 nM and 9.3 nM.
The corresponding values for `COc1c(F)ccc2c(O[C@@H]3C[C@H]4C(=O)N[C@]5(C(=O)NS(=O)(=O)C6(C)CC6)C[C@H]5/C=C\CCCCC[C@H](NC(=O)c5ccn(CC(F)(F)F)n5)C(=O)N4C3)cc(OC(C)C)nc12` [Compound 1026, (2R,6S,12Z,13aS,14aR,16aS)-2-{[7-fluoro-8-methoxy-2-(propan-2-yloxy)quinolin-4-yl]oxy}-N-[(1-methylcyclopropyl)sulfonyl]-5,16-dioxo-6-({[1-(2,2,2-trifluoroethyl)-1H-pyrazol-3-yl]carbonyl}amino)-1,2,3,6,7,8,9,10,11,13a,14,15,16,16a-tetradecahydrocyclopropa[e]pyrrolo[1,2-a][1,4]diazacyclopentadecine-14a(5H)-carboxamide] are 0.31 nM, 0.7 nM, 0.52 nM, 0.34 nM and 1.6 nM.
The corresponding values for `COc1c(F)ccc2c(O[C@@H]3C[C@H]4C(=O)N[C@]5(C(=O)NS(=O)(=O)C6(C)CC6)C[C@H]5/C=C\CCCCC[C@H](NC(=O)c5ccn(C(F)F)n5)C(=O)N4C3)cc(OC(C)C)nc12` [Compound 1027, (2R,6S,12Z,13aS,14aR,16aS)-6-({[1-(difluoromethyl)-1H-pyrazol-3-yl]carbonyl}amino)-2-{[7-fluoro-8-methoxy-2-(propan-2-yloxy)quinolin-4-yl]oxy}-N-[(1-methylcyclopropyl)sulfonyl]-5,16-dioxo-1,2,3,6,7,8,9,10,11,13a,14,15,16,16a-tetradecahydrocyclopropa[e]pyrrolo[1,2-a][1,4]diazacyclopentadecine-14a(5H)-carboxamide] are 0.33 nM, 2.2 nM, 0.47 nM, 0.39 nM and 4.7 nM.
As to `COc1c(F)ccc2c(O[C@@H]3C[C@H]4C(=O)N[C@]5(C(=O)NS(=O)(=O)C6(C)CC6)C[C@H]5/C=C\CCCCC[C@H](NC(=O)c5ccc(C)s5)C(=O)N4C3)cc(OC(C)C)nc12` [Compound 1028, (2R,6S,12Z,13aS,14aR,16aS)-2-{[7-fluoro-8-methoxy-2-(propan-2-yloxy)quinolin-4-yl]oxy}-N-[(1-methylcyclopropyl)sulfonyl]-6-{[(5-methylthiophen-2-yl)carbonyl]amino}-5,16-dioxo-1,2,3,6,7,8,9,10,11,13a,14,15,16,16a-tetradecahydrocyclopropa[e]pyrrolo[1,2-a][1,4]diazacyclopentadecine-14a(5H)-carboxamide], the EC50 in experiment [1] (setting [6]) was 0.69 nM; in experiment [2] (Huh-7, 72 h) it was 5.5 nM; in experiment [3] (setting [6]) it was 1.1 nM; in experiment [4] (Huh-7, 72 h) it was 0.52 nM; in experiment [5] (Huh-7, 72 h), 6.5 nM.
As for `CC(C)(C)OC(=O)N[C@H]1CCCCC/C=C\[C@@H]2C[C@@]2(C(=O)NS(=O)(=O)C2CC2)NC(=O)[C@@H]2C[C@@H](OC(=O)N3Cc4cccc(F)c4C3)CN2C1=O` [reference compound], the EC50 in experiment [1] (setting [7]) was 5.4 nM; in experiment [2], 180 nM; in experiment [3] (setting [8]), 2.1 nM; in experiment [4] it was 120 nM; in experiment [5] it was 690 nM.
As for `COc1ccc2c(O[C@@H]3C[C@H]4C(=O)N[C@@]5(C(=O)NS(=O)(=O)C6CC6)C[C@@H]5/C=C\CCCCN(C)C(=O)[C@@H]4C3)cc(-c3nc(C(C)C)cs3)nc2c1C` [reference compound], the EC50 was 1.2 nM in experiment [1] (setting [7]); 3500 nM in experiment [2]; 0.7 nM in experiment [3] (setting [8]); 4400 nM in experiment [4]; 300 nM in experiment [5].

By EC50 is commonly meant the midpoint of the concentration-response curve.

(Values after patent publication US20120077737A1, “HEPATITIS C INHIBITOR COMPOUNDS” (priority 2009, published 2012).)
